The values that follow are results of earlier work, collected in patent US7816544B2, “Synthesis of rocaglamide natural products via photochemical generation of oxidopyrylium species” (Trustees of Boston University, priority 2004, dated 2010).

Each structure is given as a SMILES string.

For one data set, the system named is human cancer cells. Particulars: compared with Taxol; B. Y. Hwang et al., J. Org. Chem., 2004.
The test system of the next data set is NF-κB. Particulars: different mouse and human T cell lines; B. Baumann et al., J. Biol. Chem., 2002.

Regarding `COC(=O)[C@H]1[C@@H](O)[C@@]2(O)c3c(OC)cc(O[C@@H]4O[C@@H]([C@H](O)CO)CO[C@H]4OC)cc3O[C@@]2(c2ccc(OC)cc2)[C@@H]1c1ccccc1` [silvestrol 2, silvestrol], the “cytotoxic activity against human cancer cells” value in the data set with human cancer cells was “comparable to the anticancer drug Taxol”.

For `COc1ccc([C@@]23Oc4cc(OC)cc(OC)c4[C@]2(O)[C@H](O)[C@H](C(=O)N(C)C)[C@H]3c2ccccc2)cc1` [Rocaglamide], the “inhibition of NF-κB activity / NF-κB-induced gene activation” value in the data set on NF-κB is “among the strongest inhibitors of NF-κB-induced gene activation known so far”.
